Reference: ChEMBL document CHEMBL1142012, “Synthesis and SAR of 4-(3-hydroxyphenylamino)pyrrolo[2,1-f][1,2,4]triazine based VEGFR-2 kinase inhibitors” (Bioorg Med Chem Lett, 2005)

Experiments:
Cell line [1] = test: Inhibitory concentration against Human umbilical vein endothelial cells stimulated by VEGF was determined; assay type: functional, cell-based
[2] = target: Vascular endothelial growth factor receptor 2 (Homo sapiens, UniProt P35968); test: Inhibitory concentration against Vascular endothelial growth factor receptor 2
Vascular endothelial growth factor receptor 2, sequence (P35968 whole entry): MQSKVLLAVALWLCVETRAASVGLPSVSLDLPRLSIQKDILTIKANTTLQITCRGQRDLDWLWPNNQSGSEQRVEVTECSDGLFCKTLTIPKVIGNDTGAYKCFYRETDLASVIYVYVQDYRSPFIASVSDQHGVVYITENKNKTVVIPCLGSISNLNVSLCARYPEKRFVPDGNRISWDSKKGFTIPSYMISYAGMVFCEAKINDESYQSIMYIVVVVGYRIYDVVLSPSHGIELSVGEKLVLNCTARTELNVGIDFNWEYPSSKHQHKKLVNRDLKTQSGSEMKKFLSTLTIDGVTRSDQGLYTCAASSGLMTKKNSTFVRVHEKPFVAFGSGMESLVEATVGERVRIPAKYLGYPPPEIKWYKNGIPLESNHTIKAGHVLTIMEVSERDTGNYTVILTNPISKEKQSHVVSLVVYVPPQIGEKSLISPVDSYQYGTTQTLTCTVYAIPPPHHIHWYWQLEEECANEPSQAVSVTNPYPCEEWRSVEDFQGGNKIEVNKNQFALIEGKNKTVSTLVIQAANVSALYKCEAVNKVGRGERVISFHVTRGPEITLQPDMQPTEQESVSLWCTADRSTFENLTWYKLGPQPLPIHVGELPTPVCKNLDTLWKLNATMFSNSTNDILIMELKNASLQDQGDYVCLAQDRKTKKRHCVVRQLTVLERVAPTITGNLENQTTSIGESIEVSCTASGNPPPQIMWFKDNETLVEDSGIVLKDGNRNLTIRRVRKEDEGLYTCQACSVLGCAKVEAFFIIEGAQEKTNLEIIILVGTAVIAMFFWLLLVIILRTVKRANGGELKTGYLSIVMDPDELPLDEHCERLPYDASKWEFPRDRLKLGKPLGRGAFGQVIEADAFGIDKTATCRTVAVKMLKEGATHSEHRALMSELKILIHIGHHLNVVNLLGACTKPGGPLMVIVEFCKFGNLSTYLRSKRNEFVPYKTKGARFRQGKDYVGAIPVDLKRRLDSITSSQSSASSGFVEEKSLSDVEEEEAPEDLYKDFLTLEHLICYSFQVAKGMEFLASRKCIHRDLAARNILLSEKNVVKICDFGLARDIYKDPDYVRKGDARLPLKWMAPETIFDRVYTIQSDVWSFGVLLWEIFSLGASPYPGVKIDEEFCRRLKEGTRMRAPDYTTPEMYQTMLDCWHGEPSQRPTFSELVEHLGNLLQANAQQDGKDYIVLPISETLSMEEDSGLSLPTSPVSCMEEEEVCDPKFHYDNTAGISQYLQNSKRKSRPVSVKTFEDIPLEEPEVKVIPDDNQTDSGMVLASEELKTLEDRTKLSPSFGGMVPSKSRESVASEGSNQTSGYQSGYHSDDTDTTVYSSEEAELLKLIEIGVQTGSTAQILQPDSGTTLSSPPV

Homo sapiens = species on record: Homo sapiens; conditions: Liver, Microsome
[3] = Area under the concentration time curve (0-4 hr) value in mouse after 50 mg/kg oral dosage; assay type: ADME, organism-based; design: time < 4 hr, dose 50 mg/kg, route oral; conditions: in vivo
[4] = Maximum plasma concentration in mouse after 50 mg/kg oral dosage; assay type: ADME, organism-based; design: dose 50 mg/kg, route oral
[5] = Glucuronidation in human liver microsomes was determined; assay type: ADME, Microsome
Cell line [6] = test: Inhibitory concentration against Human umbilical vein endothelial cells stimulated by VEGF was determined;NA= not active; assay type: functional, cell-based

SMILES	IC50 (Cell line [1]) [nM]	IC50 [2] [nM]	Glucuronidation (Homo sapiens) [nmol/min/mg]	further results
CCOC(=O)c1cn2ncnc(Nc3ccc(C)c(O)c3)c2c1OCC	40	64		
COCCCNC(=O)c1cn2ncnc(Nc3ccc(C)c(O)c3)c2c1C		150	0.16	
Cc1ccc(Nc2ncnn3cc(NC(=O)NCCCN4CCCCC4)c(C(C)C)c23)cc1O	5	5	0.04	
CCCc1c(C(=O)NCCCN2CCCC2)cn2ncnc(Nc3ccc(C)c(O)c3)c12	35	90		
Cc1ccc(Nc2ncnn3cc(C(=O)NCCCN4CCCC4)c(C(C)C)c23)cc1O	8	18	0.02	AUC(0-t) at 4 h [3]: 0.267 µM·h; Cmax [4]: 166 nM
CCOC(=O)c1cn2ncnc(Nc3ccc(C)c(O)c3)c2c1C(C)C	4	14		
Cc1ccc(Nc2ncnn3cc(C(=O)NCCCN4CCCC4)c(C)c23)cc1O	10	40		Glucuronidation [5]: 0.01 nmol/min/mg
COC(=O)c1cn2ncnc(Nc3ccc(C(F)(F)F)c(O)c3)c2c1C		370		
CCCc1c(C(=O)OCC)cn2ncnc(Nc3ccc(C)c(O)c3)c12	6	3		
Cc1ccc(Nc2ncnn3cc(C(=O)NCCCN4CCOCC4)c(C)c23)cc1O	3	52	0.01	
COC(=O)c1cn2ncnc(Nc3ccc(Br)c(O)c3)c2c1C		33		
Cc1ccc(Nc2ncnn3cc(NC(=O)OCCCn4nccn4)c(C(C)C)c23)cc1O		7	0.9	
COC(=O)c1cn2ncnc(Nc3cccc(O)c3)c2c1C		61		
CCCc1ccc(Nc2ncnn3cc(C(=O)OC)c(C)c23)cc1O		190		
Cc1ccc(Nc2ncnn3cc(NC(=O)OCCCN4CCCCC4)c(C(C)C)c23)cc1O	1	5	0.08	
CCc1ccc(Nc2ncnn3cc(C(=O)OC)c(C)c23)cc1O		55		
COC(=O)c1cn2ncnc(Nc3ccc(C)c(O)c3)c2c1C(C)(C)C		310		IC50 (Cell line [6]): Not Active
COC(=O)c1cn2ncnc(Nc3ccc(C)c(O)c3)c2c1C		10		
COC(=O)c1cn2ncnc(Nc3ccc(C(C)C)c(O)c3)c2c1C		380		
Cc1ccc(Nc2ncnn3cc(OCCCN4CCCCC4)c(C(C)C)c23)cc1O	1	4	0.03	
Cc1ccc(Nc2ncnn3cc(C(=O)NCCCn4nccn4)c(C)c23)cc1O	20	30	0.21	
